Data reported in the supplement of paper PMC4862054.

Assays:
Conditions in all cases: incubation time: 72 h
MDA-MB-436 [1] = test: normalised response (% of control), CellTiter-Glo; higher = more viable cells (100 = DMSO, 0 = benzethonium chloride kill control)
In short: (§1)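 Breast cancer cell lines, seeded at 20 µl suspension per well, were incubated for 72 h in 384-well plates containing compound at 5 concentrations. These concentrations rose in 10-fold steps over a 10,000-fold range set for each compound. CellTox Green fluorescence (485/520 nm) was read, then CellTiter-Glo luminescence after 10 min at room temperature, and each plate was normalised to 0.1 % DMSO (100) and a positive kill control (0). Values are normalised signals, each at one concentration.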

MCF-10A [2] = test: as above
In short: as §1

MFM-223 [3] = test: as above
In short: as §1

BT-549 [4] = test: as above
In short: as §1

HCC1143 [5] = test: as above
In short: as §1

DU-4475 [6] = test: as above
In short: as §1

MDA-MB-453 [7] = test: as above
In short: as §1

HDQ-P1 [8] = test: as above
In short: as §1

SK-BR-3 = test: as above
In short: as §1

CAL-120 [9] = test: as above
In short: as §1

CAL-51 [10] = test: as above
In short: as §1

HCC1599 [11] = test: as above
In short: as §1

CAL-148 [12] = test: as above
In short: as §1

HCC1937 [13] = test: as above
In short: as §1

Hs578T [14] = test: as above
In short: as §1

MDA-MB-231 [15] = test: as above
In short: as §1

MDA-MB-468 [16] = test: as above
In short: as §1

CAL-85-1 [17] = test: as above
In short: as §1

BT-474 [18] = test: as above
In short: as §1

MDA-MB-436 [19] = test: normalised response (% of control), CellTox Green; higher = less cell death (100 = DMSO, 0 = benzethonium chloride kill control)
In short: as §1

MCF-10A [20] = test: as above
In short: as §1

MFM-223 [21] = test: as above
In short: as §1

BT-549 [22] = test: as above
In short: as §1

HCC1143 [23] = test: as above
In short: as §1

DU-4475 [24] = test: as above
In short: as §1

MDA-MB-453 [25] = test: as above
In short: as §1

HDQ-P1 [26] = test: as above
In short: as §1

CAL-120 [27] = test: as above
In short: as §1

CAL-51 [28] = test: as above
In short: as §1

HCC1599 [29] = test: as above
In short: as §1

CAL-148 [30] = test: as above
In short: as §1

HCC1937 [31] = test: as above
In short: as §1

Hs578T [32] = test: as above
In short: as §1

MDA-MB-231 [33] = test: as above
In short: as §1

MDA-MB-468 [34] = test: as above
In short: as §1

CAL-85-1 [35] = test: as above
In short: as §1

BT-474 [36] = test: as above
In short: as §1

Row | SMILES | normalised response (MDA-MB-436 [1]) | normalised response (MCF-10A [2]) | normalised response (MFM-223 [3]) | normalised response (BT-549 [4]) | normalised response (HCC1143 [5]) | normalised response (DU-4475 [6]) | normalised response (MDA-MB-453 [7]) | normalised response (HDQ-P1 [8]) | normalised response (SK-BR-3) | normalised response (CAL-120 [9]) | normalised response (CAL-51 [10]) | normalised response (HCC1599 [11]) | normalised response (CAL-148 [12]) | normalised response (HCC1937 [13]) | normalised response (Hs578T [14]) | normalised response (MDA-MB-231 [15]) | normalised response (MDA-MB-468 [16]) | normalised response (CAL-85-1 [17]) | normalised response (BT-474 [18]) | normalised response (MDA-MB-436 [19]) | normalised response (MCF-10A [20]) | normalised response (MFM-223 [21]) | normalised response (BT-549 [22]) | normalised response (HCC1143 [23]) | normalised response (DU-4475 [24]) | normalised response (MDA-MB-453 [25]) | normalised response (HDQ-P1 [26]) | normalised response (CAL-120 [27]) | normalised response (CAL-51 [28]) | normalised response (HCC1599 [29]) | normalised response (CAL-148 [30]) | normalised response (HCC1937 [31]) | normalised response (Hs578T [32]) | normalised response (MDA-MB-231 [33]) | normalised response (MDA-MB-468 [34]) | normalised response (CAL-85-1 [35]) | normalised response (BT-474 [36])
1 | CCCCCCCCc1ccc(CCC(N)(CO)CO)cc1 [Fingolimod] (100 nM) | 100% | 105% | 106% | 95.8% | 100% | 99.7% | 97.4% | 103% | 107% | 97% | 92.5% | 107% | 101% | 96% | 97.4% | 100% | 107% | 105% | 99.9% | 97.3% | 95.9% | 103% | 88.7% | 103% | 100% | 109% | 91.7% | 104% | 109% | 111% | 87.9% | 115% | 110% | 78.8% | 122% | 102% | 101%
2 | CC[C@]1(O)C[C@H]2CN(CCc3c([nH]c4ccccc34)[C@@](C(=O)OC)(c3cc4c(cc3OC)N(C=O)[C@H]3[C@@](O)(C(=O)OC)[C@H](OC(C)=O)[C@]5(CC)C=CCN6CC[C@]43[C@@H]65)C2)C1 [Vincristine] (10 nM) | 70.8% | 60.5% | 90.8% | 38.2% | 53.5% | 86.3% | 70.6% | 71% | 17.8% | 66.8% | 86.8% | 63.5% | 64.6% | 75.7% | 82.6% | 76.7% | 20.9% | 30.6% | 71% | 56% | 51.6% | 94.7% | 77.1% | 98.8% | 98.7% | 87.5% | 44.8% | 93.9% | 73.2% | 90.7% | 71.5% | 93.3% | 88.5% | 53.4% | -5.1% | 45% | 76.7%
3 | CO[C@H]1C[C@@H]2CC[C@@H](C)[C@@](O)(O2)C(=O)C(=O)N2CCCC[C@H]2C(=O)O[C@H]([C@H](C)C[C@@H]2CC[C@@H](OCCO)[C@H](OC)C2)CC(=O)[C@H](C)/C=C(\C)[C@@H](O)[C@@H](OC)C(=O)[C@H](C)C[C@H](C)/C=C/C=C/C=C/1C [Everolimus] (1 nM) | 83.7% | 91.6% | 71.6% | 63.6% | 72.4% | 83% | 82.7% | 91.9% | 65.9% | 77.8% | 72.1% | 98.2% | 72% | 75.2% | 70.6% | 82.9% | 57.1% | 69.3% | 91.9% | 98.3% | 80% | 102% | 79.8% | 79.1% | 96.3% | 103% | 83.1% | 106% | 94.4% | 89.6% | 85.8% | 99.9% | 67.1% | 105% | 121% | 109% | 96.7%
4 | NS(=O)(=O)OC[C@@H]1C[C@@H](n2ccc3c(N[C@H]4CCc5ccccc54)ncnc32)C[C@@H]1O [Pevonedistat] (100 nM) | 82.9% | 113% | 79.1% | 73.2% | 90.1% | 68.8% | 88.9% | 102% | 35.6% | 91.1% | 51.5% | 75.6% | 120% | 96.3% | 98.7% | 118% | 56.2% | 77.8% | 114% | 102% | 108% | 65.2% | 106% | 120% | 97.8% | 112% | 99.8% | 102% | 36.4% | 104% | 94.7% | 119% | 107% | 119% | 128% | 81.5% | 102%
